Assays:
[1] = system: Bs-preQ1-RS (RNA, riboswitch) AGAGGUUCUAGCUACACCCUCUAUAAAAAACUAA; experiment: UV photocrosslinking, denaturing PAGE; conditions: 100 mM K+, 2 mM Mg2+, 50 mM Tris pH 7.5, 5% DMSO, room temperature, 5 µM RNA, 250 µM compound, covalent
[2] = system: Cy5-Tt-preQ1-RS (RNA, riboswitch) CUGGGUCGCAGUAACCCCAGUUAACAAAACAAG; experiment: microscale thermophoresis; conditions: 100 mM K+, 2 mM Mg2+, 50 mM Tris-HCl pH 7.5, 5% DMSO, room temperature, 100 nM RNA
[3] = system: Tt-preQ1-RS(G5A) (RNA, riboswitch) CUGGAUCGCAGUAACCCCAGUUAACAAAACAAG; experiment: UV photocrosslinking, denaturing PAGE; conditions: 100 mM K+, 2 mM Mg2+; 50 mM Tris pH 7.5; 10 µM RNA, 500 µM compound; covalent; similar to wild type
[4] = system: Tt-preQ1-RS(G11A) (RNA, riboswitch) CUGGGUCGCAAUAACCCCAGUUAACAAAACAAG; experiment: UV photocrosslinking, denaturing PAGE; conditions: 100 mM K+, 2 mM Mg2+; 50 mM Tris pH 7.5; 10 µM RNA, 500 µM compound; covalent; similar to wild type
[5] = system: Cy5-Bs-preQ1-RS (RNA, riboswitch) AGAGGUUCUAGCUACACCCUCUAUAAAAAACUAA; experiment: microscale thermophoresis; conditions: 100 mM K+, 2 mM Mg2+, 50 mM Tris-HCl pH 7.5, 5% DMSO, room temperature, 100 nM RNA
[6] = system: Tt-preQ1-RS(G4A) (RNA, riboswitch) CUGAGUCGCAGUAACCCCAGUUAACAAAACAAG; experiment: UV photocrosslinking, denaturing PAGE; conditions: 100 mM K+, 2 mM Mg2+; 50 mM Tris pH 7.5; 10 µM RNA, 500 µM compound; covalent; about 40% less than wild type
[7] = system: Bs-preQ1-RS full length (RNA, riboswitch) GCGGGAGAGGUUCUAGCUACACCCUCUAUAAAAAACUAGGACGAGCUGUAUCCUUGGAUACGGCCUUUU; experiment: UV photocrosslinking, TAMRA click labelling, PAGE; conditions: 100 mM K+, 2 mM Mg2+; 50 mM Tris pH 7.5, 5% DMSO; 1 µM RNA, 250 µM compound; covalent
[8] = system: Tt-preQ1-RS (ab 13_14) (RNA, riboswitch, abasic at 13 and 14) CUGGGUCGCAGUNNCCCCAGUUAACAAAACAAG; experiment: X-ray crystallography, 1.57 Å; conditions: without photocrosslinking
[9] = system: Tt-preQ1-RS (RNA, riboswitch) CUGGGUCGCAGUAACCCCAGUUAACAAAACAAG; experiment: X-ray crystallography, 2.80 Å; conditions: without photocrosslinking
[10] = system: Ss-preQ1-RS (RNA, riboswitch) AGAGGUUCCUAGCUGAUACCCUCUAUAAAAAACUA; experiment: UV photocrosslinking, denaturing PAGE; conditions: 100 mM K+, 2 mM Mg2+; 50 mM Tris pH 7.5, room temperature; 5 µM RNA, 25-250 µM compound; covalent
[11] = system: miR21-hp (RNA, miRNA) GGGUUGACUGUUGAAUCUCAUGGCAACCC; experiment: UV photocrosslinking, denaturing PAGE; conditions: 100 mM K+, 2 mM Mg2+; 50 mM Tris pH 7.5; 50:1 compound:RNA; covalent crosslink not detected
[12] = system: SAM-II-WT-RS (RNA, riboswitch) UCGCGCUGAUUUAACCGUAUUGCAAGCGCGUGAUAAAUGUAGCUAAAAAGGG; experiment: UV photocrosslinking, denaturing PAGE; conditions: 100 mM K+, 2 mM Mg2+; 50 mM Tris pH 7.5; 50:1 compound:RNA; covalent crosslink not detected
[13] = system: Ss-preQ1-RS (RNA, riboswitch) AGAGGUUCCUAGCUGAUACCCUCUAUAAAAAACUA; experiment: competition of photocrosslinking, PAGE; conditions: 100 mM K+, 2 mM Mg2+; 50 mM Tris pH 7.5; probe 11 (250 µM) displaced by 125-1250 µM PreQ1
[14] = system: Bs-preQ1-RS full length (RNA, riboswitch) GCGGGAGAGGUUCUAGCUACACCCUCUAUAAAAAACUAGGACGAGCUGUAUCCUUGGAUACGGCCUUUU; experiment: competition of photocrosslinking, TAMRA click labelling, PAGE; conditions: 100 mM K+, 2 mM Mg2+; probe 11 (250 µM) displaced by 500-1000 µM PreQ1, in MCF-7 total RNA
[15] = system: Ss-preQ1-RS (RNA, riboswitch) AGAGGUUCCUAGCUGAUACCCUCUAUAAAAAACUA; experiment: UV photocrosslinking, MALDI-TOF; conditions: 100 mM K+, 2 mM Mg2+; 10 µM RNA, 500 µM compound; covalent

C#CCCC1(CCC(=O)NCc2c[nH]c3nc(N)[nH]c(=O)c23)N=N1
% Crosslink efficiency [1]: 39.9 ± 5.3%

C#CCCC1(CCNCc2c[nH]c3nc(N)[nH]c(=O)c23)N=N1
apparent dissociation constant ([2]; about 50 x K of PreQ1): 11.03 ± 2.98 µM
binding [3]: yes
binding [4]: yes
apparent dissociation constant ([5]; about 50 x K of PreQ1): 8.25 ± 2.56 µM
binding [6]: yes
binding [7]: yes
binding [8]: yes
% Crosslink efficiency [1]: 31.3 ± 2.9%
binding [9]: yes
binding [10]: yes
binding [11]: no
binding [12]: no

CC1(CCC(=O)NCc2c[nH]c3nc(N)[nH]c(=O)c23)N=N1
% Crosslink efficiency [1]: 49.2 ± 3.2%

NCc1c[nH]c2nc(N)[nH]c(=O)c12
apparent dissociation constant [2]: 0.193 ± 0.04523 µM
binding [13]: yes
apparent dissociation constant [5]: 0.243 ± 0.01639 µM
binding [14]: yes

Nc1nc2[nH]cc(CNCCC3(CCc4cn(CCOCCOCCOCCNC(=O)CCCC[C@@H]5SC[C@@H]6NC(=O)N[C@@H]65)nn4)N=N3)c2c(=O)[nH]1
binding [15]: yes

Nc1nc2[nH]cc(CNCCOCCOCCNCc3ccc(C4(C(F)(F)F)N=N4)cc3)c2c(=O)[nH]1
% Crosslink efficiency [1]: 22.0 ± 2.2%

Nc1nc2[nH]cc(CNCCOCCOCCOCCNCc3ccc(C4(C(F)(F)F)N=N4)cc3)c2c(=O)[nH]1
% Crosslink efficiency [1]: 19.4 ± 4.4%

Nc1nc2[nH]cc(CNCc3ccc(C4(C(F)(F)F)N=N4)cc3)c2c(=O)[nH]1
binding ([1]; trace only): weak
